Molecules are shown by their SMILES.

This data set can be described thus: gradient 5% acetonitrile 3 min, to 50% in 2 min, to 85% in 15 min, held 3 min, 100 µL/min. To be noted: column: Zorbax Extend-C18 2.1 x 50 mm; eluents: water / acetonitrile, 0.1% formic acid. The essentials:
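Using water and acetonitrile that each contained 0.1% formic acid, mixtures of ~100 pure standards were separated at 100 μL/min on a Zorbax Extend-C18 column (2.1 × 50 mm, 1.8 μm). The HPLC fed a quadrupole time-of-flight mass spectrometer working in positive and negative ionization mode, with dead and dwell volumes of 40 μL and 900 μL. Data were acquired over 3 months. Retention time was read from computationally picked adduct peaks after manual inspection of each.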
Consider `O=C(NCc1cccs1)c1cccnc1N1CCNC(c2ccccc2)C1` (centres undefined), for which the RP-LC retention time came to 612 s. Consider `Cc1ccc(C(=O)NCCn2c(=O)n(Cc3ccc(F)cc3)c3cccnc32)s1`, for which the RP-LC retention time is 781 s. The value for `COCCN(Cc1ccc(C(C)C)cc1)Cc1cc(=O)n2cc(C)ccc2n1` was 719 s; that for `CSc1cccc(NC(=O)Cc2nnc(-c3ccc4ncccc4c3)o2)c1` was 753 s.

`O=C(NCc1ccccc1Br)C1CCN(c2nnc(-c3ccccc3)o2)CC1` returned an RP-LC retention time of 880 s. The value for `Cc1cc2c(=O)n(CC(=O)NCc3ccccc3Cl)c3cccnc3n2n1` was 729 s; that for `O=C(Nc1ccc(Br)cc1)NC1CCN(c2ccccc2)C1=O` (centres undefined) was 849 s; that for `Cc1nc2c(C(=O)NCCN(C)C)cnn2c(C)c1Cc1ccccc1Cl` was 674 s. Turning to `Cc1ccc(-c2nc(CN3CCOCC3)c(C)o2)cc1`, the RP-LC retention time was 640 s. The same measure for `COCCN1C(=O)c2ccccc2C(C(=O)NCCCOC(C)C)C12CCCCC2` (centres undefined): 756 s. The molecule `COCCCNC(=O)c1ccc2c(c1)N(Cc1ccc(F)cc1)C(=O)CO2` returned an RP-LC retention time of 711 s.

`CCOc1ccccc1C(=O)N1CCN(c2nnc(SCC(=O)NC(C)C)s2)CC1` yielded an RP-LC retention time of 673 s. The value for `Cc1oc(C2CCN(S(=O)(=O)c3cccc(F)c3)CC2)nc1C(=O)N(C)C` was 798 s; that for `CN(C)c1ccc(C(CNS(C)(=O)=O)N2CCc3ccccc3C2)cc1` (centres undefined) was 573 s; that for `COCC(=O)N(CC(=O)N1CCc2sccc2C1COc1ccc(F)cc1)C(C)(C)C` (centres undefined) was 906 s. The same measure for `Cc1noc(C)c1CNC(=O)COc1ccc(F)cc1`: 711 s. The same measure for `CN(CCNC(=O)c1ccc2[nH]c3c(c2c1)CN(C(=O)C1CCC1)CC3)C1CCCCC1`: 646 s; for `Cc1ccnc(Nc2ccc(NCCNS(=O)(=O)Cc3ccccc3)nn2)c1`: 570 s; for `CCOC(=O)c1csc(NC(=O)CCS(=O)(=O)c2ccc(OC)cc2)n1`: 700 s.

The molecule `CC(C)S(=O)(=O)c1cc2c(cc1NC(=O)c1c(F)cccc1F)n(C)c(=O)n2C` yielded an RP-LC retention time of 792 s. The value for `CCn1cc(-c2ccc(C)cc2)cc1C(=O)N1CCOCC1` was 932 s; that for `COc1ccc(N2CC(c3noc(-c4ccc(OC)cc4OC)n3)CC2=O)cc1` (centres undefined) was 861 s. The value for `CCOc1ccc(C2NC(=O)NC(C)=C2C(=O)OC2CCCC2)cc1OC` (centres undefined) was 770 s; that for `O=C(Nc1ccccc1)N1CCOC(CN(CC2CCCO2)C(=O)c2ccc3c(c2)OCO3)C1` (centres undefined) was 738 s. The value for `Cc1ccc2c(Nc3ccc(Cl)c(F)c3)c(C(=O)N3CCSCC3)cnc2n1` was 651 s.

In turn, `O=S(=O)(c1ccc(-c2cnc(C3CCCC3)o2)s1)N1CCN(c2ccccn2)CC1` returned an RP-LC retention time of 842 s. The same measure for `Cc1cccc(NC(=O)Cn2c(=O)n3nc(CCn4nc(C)cc4C)nc3c3ccccc32)c1`: 775 s; for `COc1ccc2nc(NC(=O)C3CCN(C(=O)C4Sc5ccccc5NC4=O)CC3)sc2c1` (centres undefined): 775 s. The value for `Cc1cc(C)cc(N2CCC(NC(=O)c3sccc3C)C2=O)c1` (centres undefined) was 916 s; that for `Cc1ccc(C)c(N2CCN(c3ccnc(SCC(=O)NCc4ccccc4Cl)n3)CC2)c1` was 952 s; that for `Cc1ccccc1C1CCCN1C(=O)c1nn(C)cc1Cl` (centres undefined) was 849 s. For `COCCCNC(=O)Nc1ccc2c(c1)CCN2S(=O)(=O)c1ccccc1`, the RP-LC retention time is 762 s. The same measure for `Fc1ccccc1-c1ccc(CNCc2ccc3c(c2)OCO3)o1`: 695 s; for `Cc1ccc(N2CCN(Cc3nc(-c4ccc(N5CCCCC5)nc4)no3)CC2)cc1`: 901 s. Molecule `COCc1noc([C@@H]2CC(F)(F)CN2C(=O)C2CC=CC2)n1` yielded an RP-LC retention time of 777 s. The same measure for `Cc1cccc(Nc2nc(CC(=O)NCc3ccccc3OC(F)(F)F)cs2)n1`: 708 s. The value for `Cc1cccc(-n2c(=O)c3sccc3n(Cc3nc(-c4ccccc4C)no3)c2=O)c1` was 1070 s; that for `CCOC(=O)c1nc(NCc2ccc(CC)cc2)c2ccccc2n1` was 869 s.

On to `COc1cc([N+](=O)[O-])cc2sc(NC(=O)c3cc(=O)c4ccccc4o3)nc12`, for which the RP-LC retention time was determined as 877 s. The value for `Cc1cccc(CN2C(=O)CN(S(C)(=O)=O)CC2(C)C(=O)NCc2ccccc2)c1` (centres undefined) was 838 s.

`Cc1ccc(CN2CCN(C3CCN(C(=O)Nc4ccc(C)c(F)c4)CC3)C(=O)C2=O)cc1` displayed an RP-LC retention time of 817 s. Consider `CCCNC(=O)C1CCCN(c2ccc(SCC(=O)Nc3ccccc3C)nn2)C1` (centres undefined), for which the RP-LC retention time turned out to be 655 s. The value for `COCCOC1CN(C2CCN(Cc3ccccc3C#N)CC2)C12CCCCC2` (centres undefined) was 572 s; that for `Cc1ccc(-n2nc(N3CCN(C(=O)Nc4ccccc4)CC3)ccc2=O)cc1` was 780 s; that for `Cc1ccc2oc(N3CCCN(C(=O)c4ccc(-c5noc(C(C)C)n5)cc4)CC3)nc2n1` was 664 s.

Turning to `Cc1cc(N2CCC(NC(=O)Nc3ccccc3Cl)C2=O)ccc1F` (centres undefined), the RP-LC retention time stood at 878 s. The molecule `O=c1c2nc(-c3ccc4c(c3)OCO4)cn2ccn1-c1ccc(Cl)cc1` gave an RP-LC retention time of 834 s.

In turn, `CCc1ccc(CNC(=O)C2CCN(Cc3cn(CC)c4ccc(OC)cc34)CC2)cc1` gave an RP-LC retention time of 761 s. The same measure for `Cc1nn(-c2ccc(N3CCCCC3)nn2)c(C)c1CCC(=O)NCc1ccco1`: 667 s; for `CCc1noc(NC(C)=O)c1-c1ccc(OC)c(S(=O)(=O)NCc2ccc(C)cc2)c1`: 802 s; for `CCC(C)NC(=O)CCNc1c(-c2ccc(C)cc2)nc2cnccn12` (centres undefined): 672 s.

As to `CCN1C(=O)C2CC3(CCN(C(=O)CC4CCCC4)CC3)CN2C1=O` (centres undefined), the RP-LC retention time worked out at 741 s.

As for `Cc1ncoc1C(=O)N1CCCCCNC(=O)[C@@H]2CCC[C@@H]21`, the RP-LC retention time was 621 s.

With `COc1ccc(NC(=O)CN2CCc3[nH]c4c(C)cc(C)cc4c(=O)c3C2)cc1OC`, the RP-LC retention time amounted to 922 s. The same measure for `O=C(Nc1ccccc1)C1CC(=O)N(CCc2c[nH]c3ccc(Cl)cc23)C1` (centres undefined): 825 s. The same measure for `CCOc1ccc(-c2cn3ccn(-c4ccc(OCC)cc4)c(=O)c3n2)cc1`: 896 s. The value for `Cc1[nH]c(C(=O)N2CCCC(C(=O)NCCN3CCCCC3)C2)c(C)c1C(=O)OC(C)C` (centres undefined) was 634 s. Turning to `O=C(NCCn1c(-c2ccccc2)nc2cccnc21)Nc1ccccc1`, the RP-LC retention time was 674 s. The same measure for `O=c1n(CCOc2ccc(F)cc2)nc2ccc(S(=O)(=O)N3CCOCC3)cn12`: 811 s; for `O=C(NCc1cccnc1)c1nc2ccccn2c1-c1ccsc1`: 589 s.

In the case of `COc1cccc(S(=O)(=O)N2CCN(c3cnn4c(C)nnc4c3)CC2)c1`, the RP-LC retention time worked out at 671 s.

`COc1cc(Cl)ccc1C(=O)N1C[C@@H]2C[C@H]1C[C@@H]2NC(=O)c1ccccc1` displayed an RP-LC retention time of 939 s. The value for `COc1ccccc1N1CCN(C(=O)c2cc(NC(=O)C(C)C)cc3nc(C)ccc23)CC1` was 666 s; that for `Cc1cccc(-c2nnc(C)c(N3CCc4ccccc4C3)n2)c1` was 826 s; that for `CC(C)(C)OC(=O)CN(c1ccc(F)cc1)S(=O)(=O)c1cccn2cnnc12` was 776 s.

Molecule `CCOc1ccc(-c2noc(CN3C(=O)COc4ccc(C(C)(C)C)cc43)n2)cc1OC` displayed an RP-LC retention time of 1230 s. The same measure for `COc1ccc(-n2ccc(=O)c(-c3nc(-c4ccccc4F)no3)n2)cc1`: 822 s; for `COCCCNC(=O)c1ccc2c(c1)CCCN2S(=O)(=O)c1ccccc1`: 822 s; for `Cc1ccc(CNC(=O)C2(C)CN(S(C)(=O)=O)CC(=O)N2Cc2ccccc2Cl)cc1` (centres undefined): 901 s. The same measure for `O=C(O)c1nnn(-c2ccc3c(c2)OCCO3)c1-c1ccncc1`: 593 s; for `COc1ccccc1CNS(=O)(=O)c1cc(-c2[nH]ncc2C(=O)N2CCCC2)oc1C`: 694 s; for `CN1CCC2(CC1)N=C(c1ccc(Br)cc1)CC(c1cc(Cl)ccc1O)N2` (centres undefined): 675 s. `Cc1ccc(-c2nnc(N3CCC(C(=O)NCCN4CCCCC4C)CC3)o2)cc1` (centres undefined) gave an RP-LC retention time of 624 s. The same measure for `O=C1N=C2C(=Nc3ccccc32)C(=O)N1CCN1CCN(c2ccccc2Cl)CC1`: 743 s; for `Cc1ccc(F)cc1NC(=O)c1csc(-c2cn(C)c3ncccc23)n1`: 1130 s; for `O=C(CCc1nc(-c2ccc(N3CCCC3)cc2)no1)N1CCN(c2ncccn2)CC1`: 957 s.

With `Cc1cc2c(OCC(CNC(C)(C)C)OC(=O)c3ccccc3)cccc2[nH]1` (centres undefined), the RP-LC retention time was 799 s.

`CCc1ccc(S(=O)(=O)c2cnc(N3CCN(c4ccccc4OC)CC3)nc2N)cc1`: the RP-LC retention time came out at 1080 s. `CNC(=O)c1sc(-c2cccc(C)c2)nc1C` gave an RP-LC retention time of 797 s.
